Data taken from publication PMC9231011, “Irreversible Antagonists for the Adenosine A2B Receptor” (Molecules, 2022).

Key:
human A1AR = target: T1, human A1AR (Homo sapiens, UniProt P30542); test: Competitive radioligand binding vs [3H]CCPA; conditions: for Ki: apparent Ki for irreversibly binding ligands, three independent experiments, read-out: A1AR vs. Radioligand [3H]CCPA Ki ± SEM
T1 construct: purchased Perkin Elmer ES-010-M400UA
T1 sequence (P30542 1-326): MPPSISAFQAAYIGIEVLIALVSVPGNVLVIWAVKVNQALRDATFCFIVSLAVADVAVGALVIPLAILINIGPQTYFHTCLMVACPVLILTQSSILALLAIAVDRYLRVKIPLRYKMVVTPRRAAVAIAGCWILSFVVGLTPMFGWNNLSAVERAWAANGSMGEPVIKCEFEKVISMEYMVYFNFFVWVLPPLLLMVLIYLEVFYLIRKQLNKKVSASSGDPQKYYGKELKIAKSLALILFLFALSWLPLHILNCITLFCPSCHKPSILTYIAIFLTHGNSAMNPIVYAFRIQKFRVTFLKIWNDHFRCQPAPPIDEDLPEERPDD
Source text: (§1) The potentially irreversible xanthine derivatives were investigated for their binding affinity at human A2BARs and for their selectivity versus the other human AR subtypes, A1, A2A, and A3, by competitive radioligand binding experiments.
(§2) The human A2AAR, the mutant human A2BAR (K269^7.32L), and the human A3AR were transiently expressed in FreeStyle^TM CHO-S cells using the transfection reagent polyethylenimine (PEI) at a ratio of 1:3 to DNA according to the manufacturer’s guideline. pcDNA3.1(+) was used as the transfection vector containing the cDNA for either the wt ARs or the K269^7.32L mutant A2BAR that was prepared by site-directed mutagenesis with the following primer: forward […], reverse […]. CHO-S cells were grown in FreeStyle^TM CHO Expression Medium supplemented with 8 mM L-glutamine before use and split to 0.5 mio. cells per mL the day before transfection. Twenty-four hours after transfection, cells were spun down by centrifugation for 15 min at 500× g. Cells were disrupted by resuspension in 5 mM tris(hydroxymethyl)aminomethane buffer (Tris, pH 7.4) containing 2 mM ethyl-ene¬diaminetetraacetic acid (EDTA) with subsequent homogenization using an Ultra-Turrax homogenizer. The cell suspension was centrifuged for 10 min at 1000× g and the obtained supernatant was pelleted by centrifugation for 60 min at 48,000× g. The supernatant was discarded and the pellet washed with 50 mM Tris (pH 7.4). After centrifugation for at least 30 min at 48,000× g, the pellet was resuspended in 50 mM Tris (pH 7.4), aliquoted and stored at −80 °C for further use. All centrifugation steps were carried out at 4 °C. Membrane preparations of the human wt A1AR and the human wt A2BAR were purchased from Perkin Elmer (Perkin-Elmer, Waltham, MA, USA) (catalogue numbers ES-010-M400UA and ES-013-M400UA).
(§3) Binding experiments were performed using 50 mM Tris buffer (pH 7.4) in a total volume of 400 µL for the A1AR, A2AAR, A3AR, and 1000 µL for the A2BAR. Initial screening was carried out in two independent experiments at 1 µM. Competition of compounds versus [^3H]CCPA (A1AR, final concentration 1 nM), [^3H]MSX-2 (A2AAR, final concentration 1 nM), [^3H]PSB-603 (A2BAR, final concentration 0.3 nM) and [^3H]PSB-11 (A3AR, final concentration 1 nM) was investigated. An amount of 7.5–25 µg of total protein per well was employed, incubated with 2 U of adenosine deaminase per mL beforehand. Non-specific binding was determined in the presence of 10 µM of 2-chloroadenosine, 10 µM of CGS 15943, 10 µM of 8-cyclopently-1,3-dipropylxanthine or 100 µM of (R)-N^6-phenylisopropyadenosine for A1-, A2A-, A2B- and A3ARs, respectively. Competition association experiments (at 25 °C) were performed in the same way but the protein was added delayed at indicated time points and the cell membranes were harvested after 1 min. Incubation was terminated by rapid filtration through GF/B glass fiber filters (Whatman) using a 48-well harvester (Brandel) after 90 (A1AR), 30 (A2AAR), 75 (A2BAR), and 45 min (A3AR) of incubation, respectively. Filters were pre-incubated with 0.3% (w/v) of PEI for 30–60 min in case of the A2AAR assay. Filters were rinsed three times with ice-cold 50 mM Tris, pH 7.4 (supplemented with 0.1% (w/v) bovine serum albumin for the A2BAR) and transferred into scintillation vials. Filters were then incubated with 2.5 mL of scintillation cocktail (ProSafe FC plus) for at least 6 h. Subsequently, radioactivity was determined using a liquid scintillation counter (Tricarb 2810TR, Perkin Elmer).

human A3AR = target: T2, human A3AR (Homo sapiens, UniProt P0DMS8); test: Competitive radioligand binding vs [3H]PSB-11; conditions: for Ki: three independent experiments, read-out: A3AR vs. Radioligand [3H]PSB-11 Ki ± SEM
T2 construct: expressed in transfected cells; host or cells: FreeStyle CHO-S cells, pcDNA3.1(+), transient
T2 sequence (P0DMS8 1-318): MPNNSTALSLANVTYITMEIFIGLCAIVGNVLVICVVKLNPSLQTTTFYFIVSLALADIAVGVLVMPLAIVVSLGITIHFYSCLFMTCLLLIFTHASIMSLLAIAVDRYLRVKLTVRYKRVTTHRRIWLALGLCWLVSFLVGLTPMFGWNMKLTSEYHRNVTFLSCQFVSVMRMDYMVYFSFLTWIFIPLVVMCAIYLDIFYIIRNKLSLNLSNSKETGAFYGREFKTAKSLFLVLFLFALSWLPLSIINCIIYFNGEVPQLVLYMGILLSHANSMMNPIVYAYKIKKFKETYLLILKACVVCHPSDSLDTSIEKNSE
Source text: as §1, §2, §3

A2BAR = target: T3, A2BAR (Homo sapiens, UniProt P29275); test: Competitive radioligand binding vs [3H]PSB-603; set-up: purchased Perkin Elmer ES-013-M400UA
T3 sequence (P29275 1-332): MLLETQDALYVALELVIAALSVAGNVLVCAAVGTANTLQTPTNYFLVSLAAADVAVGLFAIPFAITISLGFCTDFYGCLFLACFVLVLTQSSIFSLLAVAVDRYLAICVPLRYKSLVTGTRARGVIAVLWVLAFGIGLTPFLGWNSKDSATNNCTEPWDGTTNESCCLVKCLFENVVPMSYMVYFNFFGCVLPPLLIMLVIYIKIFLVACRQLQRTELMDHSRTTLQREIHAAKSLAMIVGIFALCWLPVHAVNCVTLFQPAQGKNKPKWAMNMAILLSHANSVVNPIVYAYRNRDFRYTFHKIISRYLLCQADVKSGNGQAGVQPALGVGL
Source text: as §1, §2, §3

Compound | A1AR vs. Radioligand [3H]CCPA % inhibition at 1 µM (human A1AR; 1 µM) [%] | Ki (human A1AR) [nM] | A3AR vs. Radioligand [3H]PSB-11 % inhibition at 1 µM (human A3AR) [%] | Ki (human A3AR) [nM] | Ki (A2BAR) [nM] | A2B selectivity versus the other AR subtypes (A2BAR; from Ki values) | melting point [°C] | A2B selectivity versus the A1AR (A2BAR; from Ki values) [fold] | Potency difference at A2BAR versus PSB-1115 (A2BAR; more potent than PSB-1115) [fold]
CCCn1c(=O)[nH]c2nc(-c3ccc(S(=O)(=O)N4CCC(NC(=O)c5ccc(S(=O)(=O)F)cc5)CC4)cc3)[nH]c2c1=O [compound 12, 4-((1-((4-(2,6-Dioxo-1-propyl-2,3,6,7-tetrahydro-1H-purin-8-yl)phenyl)sulfonyl)piperidin-4-yl)carbamoyl)benzenesulfonyl fluoride] | 22 | > 1000 | 15 | > 1000 | 7.37 ± 0.83 | more than two orders of magnitude |  |  | 
CCCn1c(=O)[nH]c2nc(-c3ccc(S(=O)(=O)F)cc3)[nH]c2c1=O [6a, 4-(2,6-Dioxo-1-propyl-2,3,6,7-tetrahydro-1H-purin-8-yl)benzenesulfonyl fluoride] |  | 406 ± 194 | 27 | > 1000 | 10.6 ± 0.9 | > 38 fold | > 300 | 38 | 14
CCCn1c(=O)c2[nH]c(-c3ccc(S(=O)(=O)F)cc3)nc2n(C2CC2)c1=O [6c, 4-(3-Cyclopropyl-2,6-dioxo-1-propyl-2,3,6,7-tetrahydro-1H-purin-8-yl)benzenesulfonyl fluoride] |  | 41.5 ± 2.8 | 33 | > 1000 | 26 ± 2.8 |  | > 300 |  | 
CCCn1c(=O)c2[nH]c(-c3ccc(S(=O)(=O)F)cc3)nc2n(C)c1=O [6b, 4-(3-Methyl-2,6-dioxo-1-propyl-2,3,6,7-tetrahydro-1H-purin-8-yl)benzenesulfonyl fluoride] |  | 293 ± 92 | 13 | > 1000 | 15.9 ± 1 | > 18 fold | > 300 |  | 
